# Test results taken from patent EP0061907A1, “Secondary amines, their preparation, pharmaceutical compositions containing them and their use” (BEECHAM GROUP PLC, priority 1981, dated 1982).
# Experiments:
# Format in all cases: in vivo
# rat ear = assay: Anti-inflammatory activity: croton oil induced inflammation of the rat ear; conditions: topical in irritant vehicle, ear weight after 6 hours, active = significant (5% level) reduction in ear weight vs non-drug treated control
# Description: The method used is based on that described by G. Tonelli et al (Endocrinology, 77, 625-634, 1965). An inflammation is induced in the rat ear by the application of 50 µl of a 1% solution of croton oil in tetrahydrofuran, test compounds being dissolved in the irritant vehicle. After 6 hours the inflammation is assessed by killing the animals and weighing the ears. Topical anti-inflammatory activity of a compound is generally considered to be shown when a significant (5% level) reduction in ear weight is seen compared to non-drug treated control.
# Female CFLP mice = assay: Hypoglycaemic activity: blood glucose curve after subcutaneous glucose load in fasted mice; conditions: 2 hour period after glucose 1 g/kg s.c., compared with control mice given water
# Description: Female CFLP mice, weighing approx. 25 g, were fasted for 24 hours prior to the study. The compounds under study were administered orally as an aqueous solution to each of 6 mice. 30 Minutes later a blood sample ([…]) was obtained from the tail for the analysis of blood glucose. Immediately after taking the blood sample, glucose (1 g/kg body weight) was administered subcutaneously to each mouse. 6 Mice were given water as a control. Blood samples were then obtained from each mouse at 30 minute intervals for 120 minutes. Compounds that produced a significant (P<0.05) reduction on blood glucose, compared with control mice given water, at any time interval, were considered active. The area under the blood glucose curve over the 2 hour period after the administration of the glucose was calculated for each compound and compared with the value for control animals.
# Male CFLP mice = assay: Platelet aggregation inhibition activity: response of blood platelet concentration to intravenous collagen in mice; conditions: two hours before intravenous collagen
# Description: Male CFLP mice (ca 20g, n=11 or 12) were dosed orally with compound or vehicle (controls) after an overnight fast. Two hours later each mouse received an intravenous dose of collagen ([…], pH 6-6.6). Exactly 30 sec. after injection of collagen, each mouse was placed in a chamber of C02 until respiration ceased. […] Each concentration was expressed as a per cent of that obtained in a tail blood sample taken immediately before injection of collagen.
# genetically obese mice = assay: Anti-obesity activity: carcass lipid of genetically obese mice after daily oral dosing for 28 days
# Description: The compounds were administered by oral gavage in water or carboxymethyl-cellulose suspension to genetically obese mice daily for 28 days. At the end of the time the carcass composition was determined.
smiles,measurement,setting,value
"CNCc1ccc(CC(C)NCC(O)c2cccc(Cl)c2)cc1 (stereo not shown) [Example 8, N-(2-(4-N'-Methylaminomethylphenyl)-1-methylethyl)-2-hydroxy-2-(3-chlorophenyl) ethanamine]",ACTIVITY,rat ear; 2 mg/rat ear,Active
same,REDUCTION IN AREA UNDER BLOOD GLUCOSE CURVE (%),Female CFLP mice; 12.5 µ mol/kg orally,52%
same,% Inhibition of re-sponse to collagen,Male CFLP mice; 10 µmol/kg p.o.,37 p<0.001%
"CC(=O)Oc1ccccc1C(=O)O [Aspirin, reference compound]",% Inhibition of re-sponse to collagen,Male CFLP mice; 600(108) µmol(mg)/kg p.o.,29 p<0.05%
"CC(Cc1ccc(CN(C)C)cc1)NCC(O)c1cccc(C(F)(F)F)c1 (stereo not shown) [Example 4, N-(2-(4-N'N'-Dimethylaminomethylphenyl)-1-methylethyl)-2-hydroxy-2-(3-trifluoromethylphenyl) ethanamine]",REDUCTION IN AREA UNDER BLOOD GLUCOSE CURVE (%),Female CFLP mice; 12.5 µ mol/kg orally,31%
"CNCc1ccc(CC(C)NCC(O)c2cccc(F)c2)cc1 (stereo not shown) [Example 9, N-(2-(4-N'-Methylaminomethylphenyl)-1-methylethyl)-2-hydroxy-2-(3-fluorophenyl) ethanamine]",g LIPID/MOUSE TREATED,"genetically obese mice; 10.8 mg/kg p.o. daily for 28 days, control 22.95",20.63 g
"CNCc1ccc(CC(C)NCC(O)c2cccc(C(F)(F)F)c2)cc1 (stereo not shown) [Example 3, N-(2-(4-N'-Mcthylaminomethylphenyl)-1-methylethyl)-2-hydroxy-2-(3-trifluoromethylphenyl) ethanamine]",g LIPID/MOUSE TREATED,"genetically obese mice; 12.2 mg/kg p.o. daily for 28 days, control 20.98",18.56 g
same,% Inhibition of re-sponse to collagen,Male CFLP mice; 10 µmol/kg p.o.,25 p<0.02%
"CNCc1ccc(C[C@@H](C)NC[C@H](O)c2cccc(Cl)c2)cc1 (racemic) [Example 16, (RR,SS) N-(2-(4-N'-Methylaminomethylphenyl)-1-methylethyl) -2-hydroxy-2-(3-chlorophenyl) ethanamine]",g LIPID/MOUSE TREATED,"genetically obese mice; 11.3 mg/kg p.o. daily for 28 days, control 22.55",16.03 g
same,REDUCTION IN AREA UNDER BLOOD GLUCOSE CURVE (%),Female CFLP mice; 2.5 µ mol/kg orally,33%
"CNCCCCc1ccc(CC(C)NCC(O)c2cccc(Cl)c2)cc1 (stereo not shown) [Example 27, N-(2-(4-(4-N'-Methylaminobutyl)phenyl)-1-methylethyl)-2-hydroxy-2-(3-chlorophenyl) ethanamine]",REDUCTION IN AREA UNDER BLOOD GLUCOSE CURVE (%),Female CFLP mice; 2.5 µ mol/kg orally,10%
"CNC(C)Cc1ccc(CC(C)NCC(O)c2cccc(Cl)c2)cc1 (stereo not shown) [Example 25, N-(2-(4-(2-N'-Methylaminopropyl)phenyl)-1-methylethyl) -2-hydroxy-2-(3-chlorophenyl)ethanamine]",REDUCTION IN AREA UNDER BLOOD GLUCOSE CURVE (%),Female CFLP mice; 2.5 µ mol/kg orally,41%
"CC(Cc1ccc(CN)cc1)NCC(O)c1cccc(C(F)(F)F)c1 (stereo not shown) [Example 2, N-(2-(4-Aminomethylphenyl)-1-methylethyl)-2-hydroxy-2-(3-trifluoromethylphenyl) ethanamine]",g LIPID/MOUSE TREATED,"genetically obese mice; 11.8 mg/kg p.o. daily for 28 days, control 25.09",20.87 g
same,ACTIVITY,rat ear; 0.5 mg/rat ear,Active
same,REDUCTION IN AREA UNDER BLOOD GLUCOSE CURVE (%),Female CFLP mice; 2.5 µ mol/kg orally,24%
same,% Inhibition of re-sponse to collagen,Male CFLP mice; 10 µmol/kg p.o.,29 p<0.01%
"CC(Cc1ccc(CN)cc1)NCC(O)c1ccccc1 (stereo not shown) [Example 1, N-(2-(4-Aminomethylphenyl)-1-methylethyl)-2-hydroxy-2-phenylethanamine]",g LIPID/MOUSE TREATED,"genetically obese mice; 6.25 mg/kg p.o. daily for 28 days, control 21.52",17.98 g
same,REDUCTION IN AREA UNDER BLOOD GLUCOSE CURVE (%),Female CFLP mice; 2.5 µ mol/kg orally,29%
"CN[C@H](C)c1ccc(CC(C)NCC(O)c2cccc(Cl)c2)cc1 (stereo partly drawn) [Example 24, N-(2-(4-(1-(R)-N'-Methylaminoethyl)phenyl)-1-methylethyl) -2-hydroxy-2-(3-chlorophenyl)ethanamine]",REDUCTION IN AREA UNDER BLOOD GLUCOSE CURVE (%),Female CFLP mice; 50 µ mol/kg orally,17%
"CN[C@@H](C)c1ccc(CC(C)NCC(O)c2cccc(Cl)c2)cc1 (stereo partly drawn) [Example 23, N-(2-(4-(1-(S)-N'-Methylaminoethyl)phenyl)-1-methylethyl)-2-hydroxy-2-(3-chlorophenyl)ethanamine]",REDUCTION IN AREA UNDER BLOOD GLUCOSE CURVE (%),Female CFLP mice; 50 µ mol/kg orally,26%
"CNCc1ccc(CC(C)NCC(O)c2cccc(Br)c2)cc1 (stereo not shown) [Example 12, N-(2-(4-N'-Methylaminomethylphenyl)-1-methylethyl)-2-hydroxy-2-(3-bromophenyl) ethanamine]",g LIPID/MOUSE TREATED,"genetically obese mice; 12.5 mg/kg p.o. daily for 28 days, control 24.60",20.38 g
same,REDUCTION IN AREA UNDER BLOOD GLUCOSE CURVE (%),Female CFLP mice; 2.5 µ mol/kg orally,37%
"CNCc1ccc(CC(C)NCC(O)c2ccccc2)cc1 (stereo not shown) [Example 7, N-(2-(4-N'-Methylaminomethylphenyl)-1-methylethyl)-2-hydroxy-2-phenylethanamine]",g LIPID/MOUSE TREATED,"genetically obese mice; 9.9 mg/kg p.o. daily for 28 days, control 23.13",20.56 g
"CCc1cccc(C(O)CNC(C)Cc2ccc(CNC)cc2)c1 (stereo not shown) [Example 10, N-(2-(4-N'Methylaminomethylphenyl)-1-methylethly)-2-hdroxy-2-(3-ethylphenyl) ethanamine]",REDUCTION IN AREA UNDER BLOOD GLUCOSE CURVE (%),Female CFLP mice; 100.0 µ mol/kg orally,49%
"CNCc1ccc(C[C@@H](C)NC[C@H](O)c2cccc(C(F)(F)F)c2)cc1 (racemic) [Example 15, (RR,SS) N-(2-(4-N'-Methylaminomethylphenyl)-1-methylethyl)-2-hydroxy-2-(3-trifluoromethylphenyl) ethanamine]",REDUCTION IN AREA UNDER BLOOD GLUCOSE CURVE (%),Female CFLP mice; 2.5 µ mol/kg orally,19%
"CNCCCCCCc1ccc(CC(C)NCC(O)c2cccc(Cl)c2)cc1 (stereo not shown) [Example 26, N-(2-(4-(6-N'-Methylaminohexyl)phenyl)-1-methylethyl)-2-hydroxy-2-(3-chlorophenyl) ethanamine]",REDUCTION IN AREA UNDER BLOOD GLUCOSE CURVE (%),Female CFLP mice; 2.5 µ mol/kg orally,53%
"CC(Cc1ccc(CN)cc1)NCC(O)c1cccc(Cl)c1 (stereo not shown) [Example 6, N-(2-(4-Aminomethylphenyl}-1-methylethyl)-2-hydroxy-2-(3-chlorophenyl) ethanamine]",g LIPID/MOUSE TREATED,"genetically obese mice; 10.9 mg/kg p.o. daily for 28 days, control 18.75",17.38 g
"CNCCCc1ccc(CC(C)NCC(O)c2cccc(C(F)(F)F)c2)cc1 (stereo not shown) [Example 14, N-(2-(4-(3-N'-Methylaminopropyl)phenyl)-1-methylethyl)-2-hydroxy-2-(3-trifluoromethylphenyl) ethanamine]",REDUCTION IN AREA UNDER BLOOD GLUCOSE CURVE (%),Female CFLP mice; 12.5 µ mol/kg orally,46%
